Test system: 299254-011-R-J1-PDC complex spheroids viability
Experiment: Anticancer human tumor 299254-011-R-J1-PDC patient-derived melanoma cell line growth inhibition [GQUAD]
Conditions: for IC50: curve of first compound; for viability, T/C: stronger effect = lower value
How it was run: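 Multi-cell-type spheroids of tumor cells with HUVEC and mesenchymal stem cells, treated with drug combinations. Concentrations descend in half-log steps from near clinical Cmax, or from 10 microM where Cmax is unknown; viability read-out.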

[1] = second compound 0.0316 µM, first compound 0.0316 µM
[2] = second compound 0.0316 µM, first compound 0.1 µM
[3] = second compound 0.0316 µM, first compound 0.316 µM
[4] = second compound 0.0316 µM, first compound 1 µM
[5] = second compound 0.0316 µM, first compound 3.16 µM
[6] = second compound 0.0316 µM, first compound 10 µM
[7] = second compound 0.1 µM, first compound 0.0316 µM
[8] = second compound 0.1 µM, first compound 0.1 µM
[9] = second compound 0.1 µM, first compound 0.316 µM
[10] = second compound 0.1 µM, first compound 1 µM
[11] = second compound 0.1 µM, first compound 3.16 µM
[12] = second compound 0.1 µM, first compound 10 µM
[13] = second compound 0.316 µM, first compound 0.0316 µM
[14] = second compound 0.316 µM, first compound 0.1 µM
[15] = second compound 0.316 µM, first compound 0.316 µM
[16] = second compound 0.316 µM, first compound 1 µM
[17] = second compound 0.316 µM, first compound 3.16 µM
[18] = second compound 0.316 µM, first compound 10 µM
[19] = second compound 1 µM, first compound 0.0316 µM
[20] = second compound 1 µM, first compound 0.1 µM
[21] = second compound 1 µM, first compound 0.316 µM
[22] = second compound 1 µM, first compound 1 µM
[23] = second compound 1 µM, first compound 3.16 µM
[24] = second compound 1 µM, first compound 10 µM
[25] = second compound 3.16 µM, first compound 0.0316 µM
[26] = second compound 3.16 µM, first compound 0.1 µM
[27] = second compound 3.16 µM, first compound 0.316 µM
[28] = second compound 3.16 µM, first compound 1 µM
[29] = second compound 3.16 µM, first compound 3.16 µM
[30] = second compound 3.16 µM, first compound 10 µM
[31] = second compound 10 µM, first compound 0.0316 µM
[32] = second compound 10 µM, first compound 0.1 µM
[33] = second compound 10 µM, first compound 0.316 µM
[34] = second compound 10 µM, first compound 1 µM
[35] = second compound 10 µM, first compound 3.16 µM
[36] = second compound 10 µM, first compound 10 µM
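Also: spheroids exposed to the agents for seven days before readout.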
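For viability, T/C in this document: percent viability relative to DMSO vehicle control wells = 100%.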

SMILES: C#Cc1c(F)ccc2cc(O)cc(-c3ncc4c(N5CC6CCC(C5)N6)nc(OCC56CCCN5CC(F)C6)nc4c3F)c12 (stereo not drawn) + Cc1cnc(CNC(=O)c2c(=O)c3ccc(N4CCCN(C)CC4)nc3n3c2sc2ccccc23)cn1
- IC50 (second compound 0.0316 µM): > 10000 nM
- IC50 (second compound 0.1 µM): > 10000 nM
- IC50 (second compound 0.316 µM): > 10000 nM
- IC50 (second compound 1 µM): > 10000 nM
- IC50 (second compound 3.16 µM): > 10000 nM
- IC50 (second compound 10 µM): < 31.6 nM
- viability, T/C [1]: 108%
- viability, T/C [2]: 87.8%
- viability, T/C [3]: 102%
- viability, T/C [4]: 93%
- viability, T/C [5]: 96.2%
- viability, T/C [6]: 79.8%
- viability, T/C [7]: 123%
- viability, T/C [8]: 99.2%
- viability, T/C [9]: 122%
- viability, T/C [10]: 91.7%
- viability, T/C [11]: 103%
- viability, T/C [12]: 80.5%
- viability, T/C [13]: 113%
- viability, T/C [14]: 115%
- viability, T/C [15]: 117%
- viability, T/C [16]: 87.1%
- viability, T/C [17]: 91.1%
- viability, T/C [18]: 74.1%
- viability, T/C [19]: 81%
- viability, T/C [20]: 105%
- viability, T/C [21]: 94.4%
- viability, T/C [22]: 102%
- viability, T/C [23]: 83.1%
- viability, T/C [24]: 85.6%
- viability, T/C [25]: 74.8%
- viability, T/C [26]: 103%
- viability, T/C [27]: 99.8%
- viability, T/C [28]: 85.8%
- viability, T/C [29]: 83.4%
- viability, T/C [30]: 88.6%
- viability, T/C [31]: 50.6%
- viability, T/C [32]: 18.7%
- viability, T/C [33]: 43.6%
- viability, T/C [34]: 33.4%
- viability, T/C [35]: 51.3%
- viability, T/C [36]: 0.39%

SMILES: CCCS(=O)(=O)Nc1ccc(F)c(C(=O)c2c[nH]c3ncc(-c4ccc(Cl)cc4)cc23)c1F + Cc1cnc(CNC(=O)c2c(=O)c3ccc(N4CCCN(C)CC4)nc3n3c2sc2ccccc23)cn1
- IC50 (second compound 0.0316 µM): 9460 nM
- IC50 (second compound 0.1 µM): 8900 nM
- IC50 (second compound 0.316 µM): 9480 nM
- IC50 (second compound 1 µM): 8500 nM
- IC50 (second compound 3.16 µM): 7670 nM
- IC50 (second compound 10 µM): < 31.6 nM
- viability, T/C [1]: 107%
- viability, T/C [2]: 94%
- viability, T/C [3]: 83.1%
- viability, T/C [4]: 106%
- viability, T/C [5]: 130%
- viability, T/C [6]: 47.1%
- viability, T/C [7]: 119%
- viability, T/C [8]: 129%
- viability, T/C [9]: 92.9%
- viability, T/C [10]: 128%
- viability, T/C [11]: 116%
- viability, T/C [12]: 42.6%
- viability, T/C [13]: 92.8%
- viability, T/C [14]: 109%
- viability, T/C [15]: 92.9%
- viability, T/C [16]: 99%
- viability, T/C [17]: 113%
- viability, T/C [18]: 47.5%
- viability, T/C [19]: 88.5%
- viability, T/C [20]: 85%
- viability, T/C [21]: 105%
- viability, T/C [22]: 96.8%
- viability, T/C [23]: 106%
- viability, T/C [24]: 42.4%
- viability, T/C [25]: 85.5%
- viability, T/C [26]: 96.6%
- viability, T/C [27]: 106%
- viability, T/C [28]: 91.5%
- viability, T/C [29]: 118%
- viability, T/C [30]: 35.1%
- viability, T/C [31]: 4.58%
- viability, T/C [32]: 0.48%
- viability, T/C [33]: 0.57%
- viability, T/C [34]: 0.54%
- viability, T/C [35]: 0.42%
- viability, T/C [36]: 0.34%

SMILES: Cc1[nH]c2ccccc2c1CCNCc1ccc(/C=C/C(=O)NO)cc1 + Cc1cnc(CNC(=O)c2c(=O)c3ccc(N4CCCN(C)CC4)nc3n3c2sc2ccccc23)cn1
- IC50 (second compound 0.0316 µM): 139 nM
- IC50 (second compound 0.1 µM): 172 nM
- IC50 (second compound 0.316 µM): 101 nM
- IC50 (second compound 1 µM): 48.4 nM
- IC50 (second compound 3.16 µM): 45.5 nM
- IC50 (second compound 10 µM): < 0.999 nM
- viability, T/C (second compound 0.0316 µM, first compound 0.000999 µM): 92.3%
- viability, T/C (second compound 0.0316 µM, first compound 0.00316 µM): 84.4%
- viability, T/C (second compound 0.0316 µM, first compound 0.00999 µM): 94.6%
- viability, T/C [1]: 80.3%
- viability, T/C (second compound 0.0316 µM, first compound 0.0999 µM): 65.2%
- viability, T/C [3]: 14.4%
- viability, T/C (second compound 0.1 µM, first compound 0.000999 µM): 92.7%
- viability, T/C (second compound 0.1 µM, first compound 0.00316 µM): 106%
- viability, T/C (second compound 0.1 µM, first compound 0.00999 µM): 97.1%
- viability, T/C [7]: 80.7%
- viability, T/C (second compound 0.1 µM, first compound 0.0999 µM): 87.6%
- viability, T/C [9]: 10.7%
- viability, T/C (second compound 0.316 µM, first compound 0.000999 µM): 107%
- viability, T/C (second compound 0.316 µM, first compound 0.00316 µM): 92.4%
- viability, T/C (second compound 0.316 µM, first compound 0.00999 µM): 97.3%
- viability, T/C [13]: 91.3%
- viability, T/C (second compound 0.316 µM, first compound 0.0999 µM): 50.4%
- viability, T/C [15]: 10.3%
- viability, T/C (second compound 1 µM, first compound 0.000999 µM): 86.5%
- viability, T/C (second compound 1 µM, first compound 0.00316 µM): 103%
- viability, T/C (second compound 1 µM, first compound 0.00999 µM): 79.7%
- viability, T/C [19]: 63.4%
- viability, T/C (second compound 1 µM, first compound 0.0999 µM): 28.6%
- viability, T/C [21]: 4.65%
- viability, T/C (second compound 3.16 µM, first compound 0.000999 µM): 82.8%
- viability, T/C (second compound 3.16 µM, first compound 0.00316 µM): 77.7%
- viability, T/C (second compound 3.16 µM, first compound 0.00999 µM): 68.4%
- viability, T/C [25]: 63.5%
- viability, T/C (second compound 3.16 µM, first compound 0.0999 µM): 28%
- viability, T/C [27]: 0.2%
- viability, T/C (second compound 10 µM, first compound 0.000999 µM): 26.3%
- viability, T/C (second compound 10 µM, first compound 0.00316 µM): 8.63%
- viability, T/C (second compound 10 µM, first compound 0.00999 µM): 0.47%
- viability, T/C [31]: 0.44%
- viability, T/C (second compound 10 µM, first compound 0.0999 µM): 0.35%
- viability, T/C [33]: 0.26%

SMILES: O=C(NO)c1cnc(N2CCN(S(=O)(=O)c3ccc4ccccc4c3)CC2)nc1 + Cc1cnc(CNC(=O)c2c(=O)c3ccc(N4CCCN(C)CC4)nc3n3c2sc2ccccc23)cn1
- IC50 (second compound 0.0316 µM): 201 nM
- IC50 (second compound 0.1 µM): 227 nM
- IC50 (second compound 0.316 µM): 228 nM
- IC50 (second compound 1 µM): 210 nM
- IC50 (second compound 3.16 µM): 212 nM
- IC50 (second compound 10 µM): < 31.6 nM
- viability, T/C [1]: 112%
- viability, T/C [2]: 94.8%
- viability, T/C [3]: 20.9%
- viability, T/C [4]: 0.93%
- viability, T/C [5]: 0.18%
- viability, T/C [6]: 0.19%
- viability, T/C [7]: 107%
- viability, T/C [8]: 97.8%
- viability, T/C [9]: 30.7%
- viability, T/C [10]: 1.22%
- viability, T/C [11]: 0.15%
- viability, T/C [12]: 0.24%
- viability, T/C [13]: 102%
- viability, T/C [14]: 109%
- viability, T/C [15]: 27.9%
- viability, T/C [16]: 0.56%
- viability, T/C [17]: 0.14%
- viability, T/C [18]: 0.21%
- viability, T/C [19]: 93.6%
- viability, T/C [20]: 83%
- viability, T/C [21]: 31.8%
- viability, T/C [22]: 1.83%
- viability, T/C [23]: 0.13%
- viability, T/C [24]: 0.18%
- viability, T/C [25]: 74.8%
- viability, T/C [26]: 91.3%
- viability, T/C [27]: 32.3%
- viability, T/C [28]: 0.19%
- viability, T/C [29]: 0.15%
- viability, T/C [30]: 0.16%
- viability, T/C [31]: 45.8%
- viability, T/C [32]: 11.5%
- viability, T/C [33]: 0.31%
- viability, T/C [34]: 0.22%
- viability, T/C [35]: 0.22%
- viability, T/C [36]: 0.23%

— PubChem BioAssay AID2060513 (Molecular Pharmacology Branch, DTP, NCI, 2025)
